According to patent US9512075B2 (OKAYAMA UNIVERSITY, priority 2012, dated 2016):
Values after ≈ are worked out from the molar mass of the structure shown. Where two headings read alike, the source gives them in different places.

Tests used:
Type in all cases: cell-based
[1] = tested on: Escherichia coli BE1121 strain; assay: MIC for Escherichia coli BE1121 strain; conditions: Escherichia coli, BE1121STRAIN, read-out: MIC Escherichia coli BE1121
[2] = tested on: Escherichia coli K-12 strain; assay: MIC for Escherichia coli K-12 strain; conditions: Escherichia coli, K12STRAIN, read-out: MIC Escherichia coli K12
[3] = tested on: Staphylococcus aureus Smith strain; assay: MIC for Staphylococcus aureus Smith strain; conditions: read-out: MIC Straphyrococcus aureus Smith
[4] = tested on: Staphylococcus aureus MRSA No. 17 (methicillin-resistant Staphylococcus aureus: MRSA); assay: MIC for Staphylococcus aureus MRSA No. 17; conditions: read-out: MIC Straphyrococcus aureus MRSA No. 17 (MRSA)
[5] = tested on: Enterococcus faecalis 5038 strain; assay: MIC for Enterococcus faecalis 5038 strain; conditions: read-out: MIC Enterococcus faecalis 5038
[6] = tested on: Clostridium perfringens PB6K strain; assay: microbe, parasite or virus in culture; conditions: Clostridium perfringens, PB6KSTRAIN, read-out: MIC Clostridium perfringens PB6K, PB6K strain; CD medium, 37° C. overnight, 10% CO2-containing anaerobic conditions
[7] = tested on: Enterococcus faecalis NCTC12201 strain (vancomycin-resistant Enterococcus: VRE); assay: MIC for Enterococcus faecalis NCTC12201 strain (VRE); conditions: read-out: MIC Enterococcus faecalis NCTC 12201 (VRE)
[8] = tested on: Staphylococcus aureus 209P strain; assay: MIC for Staphylococcus aureus 209P strain; conditions: Staphylococcus aureus, read-out: MIC Straphyrococcus aureus 209P
[9] = tested on: Clostridium difficile JCM1296 strain; assay: microbe, parasite or virus in culture; conditions: Clostridioides difficile, JCM1296, read-out: MIC Clostridium difficile JCM1296
[10] = BE1121 strain, regular bouillon medium, 37° C. overnight, turbidity
[11] = K-12 strain, regular bouillon medium, 37° C. overnight, turbidity
[12] = 209P strain, regular bouillon medium, 37° C. overnight, turbidity
[13] = Smith strain, regular bouillon medium, 37° C. overnight, turbidity
[14] = MRSA No. 17, regular bouillon medium, 37° C. overnight, turbidity
[15] = 5038 strain, Heart Infusion Broth medium, 37° C. overnight, turbidity
[16] = NCTC12201 strain (VRE), Heart Infusion Broth medium, 37° C. overnight, turbidity

`CCCCCCCCCC(=O)N1C(=O)C(=C(O)c2ccccc2O)c2ccccc21` [A063, N-decanoyl-3-(2-hydroxybenzoyl)-2-oxyindole] was tested, and the MIC [1, 10] was 128 µg/mL (≈ 314 µM), the MIC [2, 11] was 128 µg/mL (≈ 314 µM) and the MIC [3] was 256 µg/mL (≈ 628 µM). For the same compound, the MIC ([4]; MRSA) was 256 µg/mL (≈ 628 µM), the MIC ([5]; 5038STRAIN) was 256 µg/mL (≈ 628 µM) and the MIC [6] was 256 µg/mL (≈ 628 µM). The MIC [7] was 256 µg/mL (≈ 628 µM), the MIC [8, 12] was 256 µg/mL (≈ 628 µM) and the MIC [9] was 16 µg/mL (≈ 39.3 µM).
With `CCCCC1CCC(C(O)=C2C(=O)N(C(C)=O)c3ccccc32)CC1` (stereo not drawn) [A010, N-acetyl-3-(4-butylcyclohexylcarbonyl)-2-oxyindole] the MIC [1, 10] was 256 µg/mL (≈ 750 µM), the MIC [2, 11] was 256 µg/mL (≈ 750 µM) and the MIC [3, 13] was 0.5 µg/mL (≈ 1.46 µM). The MIC [4, 14] was 1 µg/mL (≈ 2.93 µM), the MIC [5, 15] was 0.5 µg/mL (≈ 1.46 µM) and the MIC [6] was 1 µg/mL (≈ 2.93 µM). The MIC [7, 16] was 0.5 µg/mL (≈ 1.46 µM), the MIC [8, 12] was 2 µg/mL (≈ 5.86 µM) and the MIC [9] was 0.25 µg/mL (≈ 0.732 µM).
`CCCCC1CCC(C(O)=C2C(=O)N(C(=O)OC(C)(C)C)c3ccccc32)CC1` (stereo not drawn) [A008, N-Boc-3-(4-butylcyclohexylcarbonyl)-2-oxyindole] showed an MIC [1, 10] of 128 µg/mL (≈ 320 µM), an MIC [2, 11] of 128 µg/mL (≈ 320 µM) and an MIC [3, 13] of 128 µg/mL (≈ 320 µM). For the same compound, the MIC [4, 14] was 256 µg/mL (≈ 641 µM), the MIC [5, 15] was 128 µg/mL (≈ 320 µM) and the MIC [6] was 2 µg/mL (≈ 5.01 µM). The MIC [7, 16] was 128 µg/mL (≈ 320 µM), the MIC [8, 12] was 64 µg/mL (≈ 160 µM) and the MIC [9] was 1 µg/mL (≈ 2.5 µM).
`CCCCCCCCCCOCC(O)=C1C(=O)N(C(=O)Nc2ccccc2)c2ccc(Br)cc21` [A035, N-(phenylaminocarbonyl)-5-bromo-3-decyloxyacetyl-2-oxyindole] gave an MIC [1, 10] of 128 µg/mL (≈ 242 µM), an MIC [2, 11] of 128 µg/mL (≈ 242 µM) and an MIC [3, 13] of 8 µg/mL (≈ 15.1 µM). It also gave an MIC [4, 14] of 64 µg/mL (≈ 121 µM), an MIC [5, 15] of 4 µg/mL (≈ 7.55 µM) and an MIC [6] of 0.25 µg/mL (≈ 0.472 µM). It also gave an MIC [7, 16] of 2 µg/mL (≈ 3.78 µM), an MIC [8, 12] of 64 µg/mL (≈ 121 µM) and an MIC [9] of 0.5 µg/mL (≈ 0.944 µM).
`CCCCCCCCCCOCC(O)=C1C(=O)N(C(C)=O)c2ccc(F)cc21` [A023, N-acetyl-3-decyloxyacetyl-5-fluoro-2-oxyindole] was tested, and the MIC [1, 10] was 128 µg/mL (≈ 327 µM), the MIC [2, 11] was 128 µg/mL (≈ 327 µM) and the MIC [3, 13] was 1 µg/mL (≈ 2.55 µM). The MIC [4, 14] was 64 µg/mL (≈ 163 µM), the MIC [5, 15] was 0.25 µg/mL (≈ 0.639 µM) and the MIC [6] was less than 0.125 µg/mL. For the same compound, the MIC [7, 16] was 0.25 µg/mL (≈ 0.639 µM), the MIC [8, 12] was 128 µg/mL (≈ 327 µM) and the MIC [9] was less than 0.125 µg/mL.
Work on `CCCCC1CCC(C(O)=C2C(=O)N(C(=O)OC(C)(C)C)c3cc(Cl)ccc32)CC1` (stereo not drawn) [A009, N-Boc-3-(4-butylcyclohexylcarbonyl)-6-chloro-2-oxyindole] yielded an MIC [1, 10] of 128 µg/mL (≈ 295 µM), an MIC [2, 11] of 128 µg/mL (≈ 295 µM) and an MIC [3, 13] of 32 µg/mL (≈ 73.7 µM). The MIC [4, 14] was 256 µg/mL (≈ 590 µM), the MIC [5, 15] was 4 µg/mL (≈ 9.22 µM) and the MIC [6] was 1 µg/mL (≈ 2.3 µM). It also gave an MIC [7, 16] of 4 µg/mL (≈ 9.22 µM), an MIC [8, 12] of 128 µg/mL (≈ 295 µM) and an MIC [9] of 0.5 µg/mL (≈ 1.15 µM).
With `CCCCCCCCCC(=O)NCC(=O)c1c(O)c2ccccc2oc1=O` [B016, 3-decanoylaminoacetyl-4-hydroxycoumarin] the MIC [1, 10] was 256 µg/mL (≈ 686 µM), the MIC [2, 11] was 256 µg/mL (≈ 686 µM) and the MIC [3, 13] was 256 µg/mL (≈ 686 µM). The MIC [4, 14] was 256 µg/mL (≈ 686 µM), the MIC [5, 15] was 256 µg/mL (≈ 686 µM) and the MIC [6] was 16 µg/mL (≈ 42.8 µM). For the same compound, the MIC [7, 16] was 256 µg/mL (≈ 686 µM), the MIC [8, 12] was 256 µg/mL (≈ 686 µM) and the MIC [9] was 8 µg/mL (≈ 21.4 µM).
`CCCCCCCCCC(=O)N1C(=O)C(=C(O)CCCCCCCCC)c2ccccc21` [A005, 1,3-didecanoyl-2-oxyindole] showed an MIC [1, 10] of 128 µg/mL (≈ 290 µM), an MIC [2, 11] of 128 µg/mL (≈ 290 µM) and an MIC [3, 13] of 64 µg/mL (≈ 145 µM). It also gave an MIC [4, 14] of 32 µg/mL (≈ 72.5 µM), an MIC [5, 15] of 32 µg/mL (≈ 72.5 µM) and an MIC [6] of 16 µg/mL (≈ 36.2 µM). It also gave an MIC [7, 16] of 32 µg/mL (≈ 72.5 µM), an MIC [8, 12] of 32 µg/mL (≈ 72.5 µM) and an MIC [9] of 2 µg/mL (≈ 4.53 µM).
`CCCCCCCCC(O)=C1C(=O)N(C(=O)Nc2ccccc2)c2ccc(F)cc21` [A059, N-(phenylaminocarbonyl)-5-fluoro-3-nonanoyl-2-oxyindole] showed an MIC [1] of 256 µg/mL (≈ 624 µM), an MIC [2] of 128 µg/mL (≈ 312 µM) and an MIC [3, 13] of 0.5 µg/mL (≈ 1.22 µM). It also gave an MIC [4, 14] of 64 µg/mL (≈ 156 µM), an MIC [5, 15] of 0.5 µg/mL (≈ 1.22 µM) and an MIC [6] of 4 µg/mL (≈ 9.74 µM). The MIC [7, 16] was 25 µg/mL (≈ 60.9 µM), the MIC ([8]; 209P) was 64 µg/mL (≈ 156 µM) and the MIC [9] was 8 µg/mL (≈ 19.5 µM).
For `CCCCC1CCC(C(O)=C2C(=O)N(C(=O)c3ccccc3)c3ccccc32)CC1` (stereo not drawn) [A014, N-benzoyl-3-(4-butylcyclohexylcarbonyl)-2-oxyindole], the MIC [1, 10] was 128 µg/mL (≈ 317 µM), the MIC [2, 11] was 128 µg/mL (≈ 317 µM) and the MIC [3, 13] was 1 µg/mL (≈ 2.48 µM). For the same compound, the MIC [4, 14] was 4 µg/mL (≈ 9.91 µM), the MIC [5, 15] was 1 µg/mL (≈ 2.48 µM) and the MIC [6] was 8 µg/mL (≈ 19.8 µM). The MIC [7, 16] was 0.5 µg/mL (≈ 1.24 µM), the MIC [8, 12] was 2 µg/mL (≈ 4.96 µM) and the MIC [9] was 4 µg/mL (≈ 9.91 µM).
In the case of `CCCCCCCCCCOCC(O)=C1C(=O)N(C(=O)Nc2ccc(F)cc2)c2ccccc21` [A041, N-(4-fluorophenylaminocarbonyl)-3-decyloxyacetyl-2-oxyindole], the MIC [1, 10] is reported as 256 µg/mL (≈ 546 µM), the MIC [2, 11] is reported as 128 µg/mL (≈ 273 µM) and the MIC [3, 13] is reported as 4 µg/mL (≈ 8.54 µM). The MIC [4, 14] was 256 µg/mL (≈ 546 µM), the MIC [5, 15] was 2 µg/mL (≈ 4.27 µM) and the MIC [6] was 8 µg/mL (≈ 17.1 µM). It also gave an MIC [7, 16] of 4 µg/mL (≈ 8.54 µM), an MIC [8, 12] of 256 µg/mL (≈ 546 µM) and an MIC [9] of 0.5 µg/mL (≈ 1.07 µM).
`CCCCCCCCCCOCC(=O)c1c(O)c2ccccc2oc1=O` [B015, 3-decyloxyacetyl-4-hydroxycoumarin] showed an MIC [1] of 128 µg/mL (≈ 355 µM), an MIC [2] of 256 µg/mL (≈ 710 µM) and an MIC [3] of 2 µg/mL (≈ 5.55 µM). The MIC ([4]; MRSA) was 8 µg/mL (≈ 22.2 µM), the MIC ([5]; 5038STRAIN) was 4 µg/mL (≈ 11.1 µM) and the MIC [6] was 25 µg/mL (≈ 69.4 µM). For the same compound, the MIC [7] was 2 µg/mL (≈ 5.55 µM), the MIC ([8]; 209P) was 8 µg/mL (≈ 22.2 µM) and the MIC [9] was 0.25 µg/mL (≈ 0.694 µM).
